Measurements reported in US20260248789A1, “CONTROLLED RELEASE PDE10A FORMULATIONS” (Merck Sharp & Dohme LLC, priority 2023, published 2026).

Columns and labels:
[1] = Study 3: tolerability / adverse events of CR formulation; assay type: in vivo, human
Description: In Study 3, one panel of participants [(n=8)—monotherapy in adult participants with schizophrenia] were titrated from 16 mg to 24 mg or placebo, while in another panel participants (n=18) received 24 mg/placebo without titration (Table 5) to determine if titration was required for tolerability.
There were 2 events of transient dystonia following the first dose of 16 mg, but both events responded to treatment and participants continued dosing without recurrence. […] Other adverse events (i.e., depression, anxiety and stress) across all three studies were mostly mild or moderate in intensity and there was no clear dose-related increase in specific events (Table 6).

[2] = Study 7: tolerability in healthy subjects 8-72 mg; assay type: in vivo, human; settings: Study 7, healthy subjects (n=12) dosed 8 mg to 72 mg; up to and including doses of 48 mg
Source text: Plasma exposures in this study were generally similar those observed in the other multiple dose studies reported here (data not shown).

[3] = Study 2: tolerability of CR formulation; assay type: in vivo, human; settings: Study 2, CR formulation titrated from 4 mg to 24 mg and from 8 mg to 48 mg
Description: (§1) Study 2 was designed similarly to Study 1; participants were administered CR Release formulations of Compound A/placebo as monotherapy in participants with schizophrenia (n=16) and healthy participants (n=16), or as adjunctive therapy (n=17) (schizophrenia participants only) and titrated from 4 mg to 24 mg (see Table 3 for illustration of PK at the 24 mg dose level as monotherapy in healthy adults). In Study 2 an additional panel of participants with schizophrenia was administered CR formulations of Compound A/placebo as monotherapy and titrated from 8 mg to 48 mg (n=26)(see Table 4 for illustration of PK at the 48 mg dose level).

[4] = Study 2: multiple-dose titration study, PK of CR formulation; assay type: in vivo; settings: human, plasma, oral, highest dose level in Study 2 (48 mg, CR formulation, schizophrenia)
Description: as §1

[5] = 24 mg (Day 1-7), Panel B, participants with schizophrenia, 14 in population

In the case of `Cc1ccc([C@H]2C[C@@H]2COc2cc(NCc3nnc(C)s3)nc(C)n2)nc1` [Compound A, 2-methyl-N-((5-methyl-1,3,4-thiadiazol-2-yl)methyl)-6-(((1S,2S)-2-(5-methylpyridin-2-yl)cyclopropyl)methoxy)pyrimidin-4-amine], the “Alanine aminotransferase increased, (%)” value [1, 5] is reported as “(7.1) %”, the “Decreased appetite, (%)” value [1, 5] is reported as “(7.1) %” and the “Hypertonia, (%)” value [1, 5] is reported as “(7.1) %”. The “Investigations (non-serious related AE), (%)” value [1, 5] was “(7.1) %”, the “Metabolism and nutrition disorders, (%)” value [1, 5] was “(7.1) %” and the “Musculoskeletal and connective tissue disorders, (%)” value [1, 5] was “(7.1) %”. The “Musculoskeletal stiffness, (%)” value [1, 5] was “(7.1) %”, the “Nervous system disorders, (%)” value [1, 5] was “(21.4) %” and the “Participants with no Non-Serious Related Adverse Event, (%)” value [1, 5] was “(64.3) %”. For the same molecule, the “Participants with one or more Non-Serious Related Adverse Event, (%)” value [1, 5] was “(35.7) %”, the “Somnolence, (%)” value [1, 5] was “(14.3) %” and the tolerability ([1]; Study 3, dosing initiated at 16 mg or 24 mg with no titration) was “generally well tolerated”. For the same molecule, the dystonia ([1]; Study 3, dosing initiated at 24 mg without titration) was “No events of dystonia were reported”, the “events of transient dystonia” value ([1]; Study 3, following the first dose of 16 mg) was 2 and the dystonia [2] was “no dystonia was reported”. For the same molecule, the dystonia [3] was “no Compound A-related dystonia was observed”, the Cmax [4] was ~1800 nM and the concentration at 24 h ([4]; read-out: C24) was ~1200 nM.
